Results on ten compounds are retold here after EP0326331B1, “Substituted quinolines and cinnolines” (Dow AgroSciences LLC, priority 1988, dated 1989).

Common to all, as to assay type: in vivo
For one assay, the system named is corn rootworm. The assay is described as follows: Mite/insect screen, CRW. To be noted: percent mortality, read-out: CRW RESULTS %; for mortality at 12 ppm: CRW RATE 12.00 PPM; for mortality at 24 ppm: CRW RATE 24.00 PPM. As for the experimental part: (§1) The compounds of Examples 1-295 were tested for miticidal and insecticidal activity in the following mite/insect screen.
(§2) Each test compound was formulated by dissolving the compound in acetone/alcohol (50:50) mixture containing 23 g of "TOXIMUL R" (sulfonate/nonionic emulsifier blend) and 13 g of "TOXIMUL S" (sulfonate/nonionic emulsifier blend) per liter. These mixtures were then diluted with water to give the indicated concentrations.
(§3) After standard exposure periods, percent mortality was evaluated. […]

Assay [1] deals with Pseudoperonospora cubensis (downy mildew). Description: Test 1 greenhouse foliar spray screen, downy mildew on squash. The following applies: disease control rating, foliar spray on squash, 400 ppm (+++ at 100 ppm).
Assay [2] concerns southern armyworm (Spodopetra eridania Cramer). The assay is described as follows: Mite/insect screen, SAW. The following applies: Spodoptera eridania, percent mortality, SAW, read-out: SAW RESULTS %; for mortality at 200 ppm: SM & MA RATE 200 PPM; for mortality at 400 ppm: SM & MA RATE 400 PPM. As for the experimental part:
as §1, §2
(§4) Other plants in the same treatment pot were left uninfested. The leaves were then sprayed with 5 ml of test solution using a DeVilbiss atomizing sprayer at 10 psi. Both surfaces of the leaves were covered until runoff, and then allowed to dry for one hour. Two uninfested leaves were then excised and placed into a Petri dish containing southern armyworm (Spodopetra eridania Cramer).
as §3

In assay [3] the test system is Botrytis cinerea (gray mold). The assay is described as follows: Test 1 greenhouse foliar spray screen, gray mold on grape berries. The following applies: disease control rating, spray on grape berries, 400 ppm (+++ at 100 ppm).
The test system of assay [4] is Puccinia recondita tritici (leaf rust). The assay is described as follows: Test 1 greenhouse foliar spray screen, leaf rust on wheat. The following applies: disease control rating, foliar spray on wheat, 400 ppm (+++ at 100 ppm).
For assay [5], the system named is melon aphids (Aphis gossypii Glover). The assay is described as follows: Mite/insect screen, MA. To be noted: Aphis gossypii, percent mortality, SAW, read-out: MA RESULTS %; for mortality at 200 ppm: SM & MA RATE 200 PPM; for mortality at 400 ppm: SM & MA RATE 400 PPM. As for the experimental part: as §1, §2, §4, §3
The subject of assay [6] is Erysiphe graminis tritici (powdery mildew). Description: Test 1 greenhouse foliar spray screen, powdery mildew on wheat. To be noted: disease control rating, foliar spray on wheat, 400 ppm (+++ at 100 ppm).
For assay [7], the system named is Twospotted spider mites (Tetranychus urticae Koch). Description: Mite/insect screen, SM. The following applies: Tetranychus urticae, percent mortality, SAW, read-out: SM RESULTS %; for mortality at 200 ppm: SM & MA RATE 200 PPM; for mortality at 400 ppm: SM & MA RATE 400 PPM. How it is done: as §1, §2, §4, §3
The test system of assay [8] is Pyricularia oryzae (rice blast). Description: whole plant or invertebrate. The following applies: disease control rating, foliar spray on rice, 400 ppm (+++ at 100 ppm).

Consider `COc1ccccc1CCNc1ccnc2cc(Cl)ccc12` [Example 100, 7-chloro-N-[2-(2-methoxyphenyl)ethyl]-4-quinolinamine], for which, in the assay on corn rootworm, the mortality at 12 ppm is 0% and the mortality at 24 ppm was 0%. Further, the “DOWN MDEW” value in assay [1] is “+ (20-89% control at 400 ppm)”. For the same compound, in [2], the mortality at 200 ppm turned out to be 0% and the mortality at 400 ppm turned out to be 0%. Besides, the “GRAY MOLD” value in assay [3] is “- (0-19% control at 400 ppm)”. In addition, the “LEAF RUST” value in assay [4] is “+ (20-89% control at 400 ppm)”. In addition, in [5], the mortality at 200 ppm is 0% and the mortality at 400 ppm came to 0%. For the same compound, the “POWD MDEW” value in [6] was “+ (20-89% control at 400 ppm)”. In [7], the mortality at 200 ppm was determined as 0% and the mortality at 400 ppm was determined as 0%. In assay [8], the “RICE BLAST” value is on record as “+ (20-89% control at 400 ppm)”.

With `Cc1cc(NCCc2ccc(Cl)cc2)c2ccccc2n1` [Example 102, N-[2-(4-chlorophenyl)ethyl]-2-methyl-4-quinolinamine], in the assay on corn rootworm, the mortality at 12 ppm was determined as 0% and the mortality at 24 ppm turned out to be 0%. The “DOWN MDEW” value in assay [1] was “- (0-19% control at 400 ppm)”. Moreover, in [2], the mortality at 200 ppm is 0% and the mortality at 400 ppm amounted to 50%. Besides, in assay [3], the “GRAY MOLD” value is on record as “- (0-19% control at 400 ppm)”. In assay [4], the “LEAF RUST” value is “- (0-19% control at 400 ppm)”. For the same compound, in assay [5], the mortality at 200 ppm is 0% and the mortality at 400 ppm is 0%. Besides, in assay [6], the “POWD MDEW” value was “+ (20-89% control at 400 ppm)”. In assay [7], the mortality at 200 ppm was 0% and the mortality at 400 ppm was found to be 0%. In addition, the “RICE BLAST” value in assay [8] is “+ (20-89% control at 400 ppm)”.

On to `Cc1ccc(C)c2c(NCCc3ccc(Cl)cc3)ccnc12` [Example 109, N-[2-(4-chlorophenyl)ethyl]-5,8-dimethyl-4-quinolinamine], for which the mortality at 24 ppm in the assay with corn rootworm stood at 0%. In addition, the “DOWN MDEW” value in assay [1] is “+++ (90-100% control at 100 ppm)”. Moreover, the mortality at 400 ppm in assay [2], in assay [5] and in assay [7] was 0% throughout. For the same compound, in assay [3], the “GRAY MOLD” value is on record as “- (0-19% control at 400 ppm)”. In assay [4], the “LEAF RUST” value is “++ (90-100% control at 400 ppm)”. In addition, the “POWD MDEW” value in [6] is “+ (20-89% control at 400 ppm)”. Besides, the “RICE BLAST” value in assay [8] was “+ (20-89% control at 400 ppm)”.

As for `Nc1cccc2c(NCCc3ccc(Cl)cc3)ccnc12` [Example 110, N(4)-[2-(4-chlorophenyl)ethyl]-4,8-quinolinediamine], in the assay on corn rootworm, the mortality at 12 ppm came to 0%. For the same compound, the mortality at 24 ppm with corn rootworm was 0%. The “DOWN MDEW” value in assay [1] is recorded as “++ (90-100% control at 400 ppm)”. Besides, the mortality at 200 ppm in assay [2], in assay [5] and in assay [7] was 0% in each case. The mortality at 400 ppm in [2], in assay [5] and in assay [7] was 0% each time. The “GRAY MOLD” value in assay [3] is reported as “- (0-19% control at 400 ppm)”. For the same compound, in [4], the “LEAF RUST” value is “++ (90-100% control at 400 ppm)”. The “POWD MDEW” value in assay [6] was “- (0-19% control at 400 ppm)”. The “RICE BLAST” value in [8] is given as “+ (20-89% control at 400 ppm)”.

With `Clc1ccccc1CCNc1ccnc2c(Cl)cccc12` [Example 115, N-[2-(2-chlorophenyl)ethyl]-8-chloro-4-quinolinamine], in the assay with corn rootworm, the mortality at 12 ppm came out at 0% and the mortality at 24 ppm was 0%. Also, the “DOWN MDEW” value in assay [1] is listed as “+ (20-89% control at 400 ppm)”. In assay [2], the mortality at 200 ppm is 0% and the mortality at 400 ppm is 0%. The “GRAY MOLD” value in assay [3] was “- (0-19% control at 400 ppm)”. In addition, in assay [4], the “LEAF RUST” value is listed as “- (0-19% control at 400 ppm)”. For the same compound, in assay [5], the mortality at 200 ppm is 0% and the mortality at 400 ppm is 0%. Moreover, the “POWD MDEW” value in [6] is “- (0-19% control at 400 ppm)”. Further, in assay [7], the mortality at 200 ppm was 0% and the mortality at 400 ppm stood at 0%. The “RICE BLAST” value in [8] is recorded as “+ (20-89% control at 400 ppm)”.

Turning to `CC(=O)N(CCc1ccc(Cl)cc1)c1ccnc2ccc(F)cc12` [Example 121, N-[2-(4-chlorophenyl)ethyl]-N-(6-fluoro-4-quinolinyl)acetamide], in the assay on corn rootworm, the mortality at 12 ppm amounted to 0% and the mortality at 24 ppm came out at 0%. In assay [1], the “DOWN MDEW” value was “+ (20-89% control at 400 ppm)”. In assay [2], the mortality at 200 ppm was 0% and the mortality at 400 ppm turned out to be 0%. For the same compound, in assay [3], the “GRAY MOLD” value is “- (0-19% control at 400 ppm)”. Moreover, the “LEAF RUST” value in assay [4] was “++ (90-100% control at 400 ppm)”. Moreover, in assay [5], the mortality at 200 ppm is 0% and the mortality at 400 ppm came out at 0%. Besides, the “POWD MDEW” value in assay [6] was “+ (20-89% control at 400 ppm)”. In addition, in [7], the mortality at 200 ppm came out at 0% and the mortality at 400 ppm came to 0%. The “RICE BLAST” value in [8] is “- (0-19% control at 400 ppm)”.

With `COc1ccc(CCN(C(C)=O)c2ccnc3cc(Cl)ccc23)cc1` [Example 125, N-(7-chloro-4-quinolinyl)-N-[2-(4-methoxyphenyl)ethyl]acetamide], in the assay on corn rootworm, the mortality at 12 ppm was determined as 0% and the mortality at 24 ppm was determined as 0%. Also, the “DOWN MDEW” value in [1] is “- (0-19% control at 400 ppm)”. Further, in assay [2], the mortality at 200 ppm amounted to 0% and the mortality at 400 ppm worked out at 0%. Further, the “GRAY MOLD” value in [3] is “- (0-19% control at 400 ppm)”. Further, the “LEAF RUST” value in assay [4] is “- (0-19% control at 400 ppm)”. In assay [5], the mortality at 200 ppm came to 0% and the mortality at 400 ppm was found to be 0%. Also, in [6], the “POWD MDEW” value is on record as “+ (20-89% control at 400 ppm)”. In assay [7], the mortality at 200 ppm came out at 0% and the mortality at 400 ppm amounted to 0%. Besides, the “RICE BLAST” value in assay [8] was “- (0-19% control at 400 ppm)”.

With `CC(=O)N(CCc1ccc(Cl)cc1Cl)c1ccnc2cc(C(F)(F)F)ccc12` [Example 127, N-[2-(2,4-dichlorophenyl)ethyl]-N-[7-(trifluoromethyl)-4-quinolinyl]acetamide], in the assay with corn rootworm, the mortality at 12 ppm was 0% and the mortality at 24 ppm is 0%. The “DOWN MDEW” value in assay [1] is on record as “+ (20-89% control at 400 ppm)”. In assay [2], the mortality at 200 ppm was 0% and the mortality at 400 ppm amounted to 0%. Moreover, the “GRAY MOLD” value in assay [3] was “- (0-19% control at 400 ppm)”. In [4], the “LEAF RUST” value is “+ (20-89% control at 400 ppm)”. In [5], the mortality at 200 ppm was 0% and the mortality at 400 ppm was determined as 0%. Also, the “POWD MDEW” value in assay [6] is given as “+ (20-89% control at 400 ppm)”. In [7], the mortality at 200 ppm amounted to 0% and the mortality at 400 ppm amounted to 0%. Moreover, the “RICE BLAST” value in [8] was “+ (20-89% control at 400 ppm)”.

With `CC(=O)N(CCc1ccc(C(C)(C)C)cc1)c1ccnc2c(F)cccc12` [Example 128, N-[4-(t-butyl)phenyl]ethyl-N-(8-fluoro-4-quinolinyl)acetamide], in the assay with corn rootworm, the mortality at 12 ppm amounted to 0% and the mortality at 24 ppm was found to be 0%. Besides, in assay [1], the “DOWN MDEW” value was “- (0-19% control at 400 ppm)”. In addition, in assay [2], the mortality at 200 ppm was 0% and the mortality at 400 ppm turned out to be 0%. In [3], the “GRAY MOLD” value is listed as “- (0-19% control at 400 ppm)”. Moreover, in assay [4], the “LEAF RUST” value was “+ (20-89% control at 400 ppm)”. For the same compound, in [5], the mortality at 200 ppm was 0% and the mortality at 400 ppm was determined as 0%. In [6], the “POWD MDEW” value is reported as “- (0-19% control at 400 ppm)”. Further, in assay [7], the mortality at 200 ppm came to 0% and the mortality at 400 ppm stood at 0%. Also, the “RICE BLAST” value in assay [8] was “+ (20-89% control at 400 ppm)”.

Regarding `CC(=O)N(CCc1ccc(-c2ccccc2)cc1)c1ccnc2c(F)cccc12` [Example 130, N-[2-(1,1'-biphenyl)-4-ylethyl]-N-(8-fluoro-4-quinolinyl)acetamide], in the assay with corn rootworm, the mortality at 12 ppm was 0% and the mortality at 24 ppm is 0%. For the same compound, the “DOWN MDEW” value in [1] was “- (0-19% control at 400 ppm)”. Moreover, in assay [2], the mortality at 200 ppm is 0% and the mortality at 400 ppm was 0%. Further, the “GRAY MOLD” value in assay [3] is recorded as “- (0-19% control at 400 ppm)”. Also, the “LEAF RUST” value in [4] is reported as “- (0-19% control at 400 ppm)”. Also, in assay [5], the mortality at 200 ppm is 0% and the mortality at 400 ppm is 0%. In assay [6], the “POWD MDEW” value is “- (0-19% control at 400 ppm)”. For the same compound, in assay [7], the mortality at 200 ppm was 0% and the mortality at 400 ppm stood at 0%. Also, in assay [8], the “RICE BLAST” value is recorded as “- (0-19% control at 400 ppm)”.
